# “And” between values parts separate entries of the source, which are not always exact repeats. Identical values can stand only once.
# What was measured:
# SipB = biological target: SipB; design: species or system S. Typhimurium; conditions: ITC, individual replicates, Supplementary Figure 19a; read-out: Kd, SicA binding to SipB
# Description: (§1) ITC measurements were carried out at 20 °C with a Nano ITC Standard Volume isothermal calorimeter (TA Instruments, New Castle, DE) controlled by the ITCRun software. The N-terminal His6 tags of all purified proteins were removed before ITC analysis. For titrations with DPD/AI-2 (Omm Scientific), the tag-free proteins were dialyzed against a Tris buffer (25 mM Tris-HCl, 150 mM NaCl, pH 7.5) and diluted to 70 μM, while DPD/AI-2 was diluted with the same buffer to 700 μM. […] After being degassed, 1 ml of the protein and 250 μl of the ligand solution were added to the sample cell and the syringe, respectively. There were 25 injections per experiment and the stirring speed was 200 rpm. In control experiments, the ligand solution was titrated into the buffer in the sample cell to obtain the heat of dilution. Microcalorimetric data were corrected by subtracting the heats of dilution and fit to the independent binding site model using the NanoAnalyze software.
# (§2) Supplementary Fig. 19 Isotherms representing binding of SicA and its variants with InvF, SipB and SipC as measured by ITC
# (§3) ITC data and plots of injected heat for 25 automatic injections of 100 μM SicA (a, d, f),SicAK27A (b) or SicAN70A (c, e, g) into the sample cellcontaining 10 μM SipB (a-c), InvF (d, e), or SipC (f,g) are shown inthe upper and lower plots, respectively. […]
# SipC = biological target: T1, SipC (Salmonella typhimurium, UniProt E1WAC8); type: binding, S. Typhimurium; conditions: individual replicates, Supplementary Figure 19f
# T1 construct: His6 (N, cleaved yes); made in house; host or cells: E. coli BL21(DE3) (pET28a-sipC)
# T1 sequence (E1WAC8 whole entry): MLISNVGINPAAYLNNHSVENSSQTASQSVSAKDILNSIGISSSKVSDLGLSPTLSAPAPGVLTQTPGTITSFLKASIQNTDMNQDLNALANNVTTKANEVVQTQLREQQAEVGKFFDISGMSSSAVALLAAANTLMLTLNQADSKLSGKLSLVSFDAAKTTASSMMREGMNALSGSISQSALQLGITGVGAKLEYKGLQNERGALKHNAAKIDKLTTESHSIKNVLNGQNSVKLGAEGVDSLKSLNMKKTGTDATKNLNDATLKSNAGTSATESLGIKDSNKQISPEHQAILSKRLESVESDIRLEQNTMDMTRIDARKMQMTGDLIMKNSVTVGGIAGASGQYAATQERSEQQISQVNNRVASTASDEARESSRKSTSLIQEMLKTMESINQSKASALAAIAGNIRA
# T1 sequence (P69066 whole entry partner): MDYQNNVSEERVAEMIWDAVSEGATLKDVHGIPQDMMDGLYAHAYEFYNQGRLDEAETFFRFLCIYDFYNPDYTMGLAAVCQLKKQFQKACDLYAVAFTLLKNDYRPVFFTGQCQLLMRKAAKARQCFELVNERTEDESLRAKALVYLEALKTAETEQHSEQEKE
# Description: as §1, §2, §3
# InvF = biological target: T2, InvF (Salmonella typhimurium, UniProt P69343); conditions: individual replicates, Supplementary Figure 19d
# T2 sequence (P69343 1-216): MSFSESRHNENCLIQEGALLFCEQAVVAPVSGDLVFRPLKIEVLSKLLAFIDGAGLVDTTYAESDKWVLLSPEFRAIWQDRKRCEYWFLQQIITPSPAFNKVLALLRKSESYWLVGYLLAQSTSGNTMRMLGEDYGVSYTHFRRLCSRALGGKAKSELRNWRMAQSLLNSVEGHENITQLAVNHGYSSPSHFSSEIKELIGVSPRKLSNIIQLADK
# Description: as §1, §2, §3
# [1] = biological target: KMK13526-LBD (H216Y/Q245D) (Pluralibacter gergoviae, UniProt A0A0J5L7D7, H216Y/Q245D); conditions: ITC binding stoichiometry n, individual replicates, Supplementary Figure 7d
# Chain of KMK13526-LBD (H216Y/Q245D) (A0A0J5L7D7 31-310 H216Y/Q245D): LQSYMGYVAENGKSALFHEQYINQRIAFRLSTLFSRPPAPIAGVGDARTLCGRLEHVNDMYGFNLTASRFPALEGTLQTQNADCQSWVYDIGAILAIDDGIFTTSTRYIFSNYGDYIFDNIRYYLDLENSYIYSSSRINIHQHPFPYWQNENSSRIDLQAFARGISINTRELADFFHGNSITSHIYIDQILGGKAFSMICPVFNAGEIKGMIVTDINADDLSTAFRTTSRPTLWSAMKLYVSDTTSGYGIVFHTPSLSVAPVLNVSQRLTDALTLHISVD
# YeaJ-LBDD239A = YeaJ-LBDD239A (Salmonella enterica subsp. enterica serovar Typhimurium, UniProt Q8ZPW4, D239A); experiment: ITC: DPD/AI-2 binding to YeaJ-LBD D239A mutant; design: species or system S. Typhimurium; conditions: head prints YeaJ-LBDY239A, individual experiments, source data Fig. 2d
# Description: as §1
# YeaJ-LBDY210A = YeaJ-LBDY210A (Salmonella enterica subsp. enterica serovar Typhimurium, UniProt Q8ZPW4, Y210A); experiment: ITC: DPD/AI-2 binding to YeaJ-LBD Y210A mutant; design: species or system S. Typhimurium; conditions: individual experiments, source data Fig. 2d
# Description: as §1
# S. Typhimurium = experiment: Cellular c-di-GMP quantification by LC-MS/MS; type: cell-based; conditions: for Change of intracellular c-di-GMP concentration (in words): exogenous DPD/AI-2 (10 μM, 30 min)
# Description: For stimulation with AI-2, the DPD/AI-2 solution was added to the shaking culture at OD600 of 1.3, followed by another 30 min of incubation at 37 °C. For induction by porcine bile salts and individual bile components (Sigma-Aldrich), substances were added to the static culture at OD600 of 1.1, followed by another 30 min of incubation at 37 °C. About 15 ml of culture was centrifuged and the cells were washed twice with phosphate-buffered saline (PBS, pH 7.0). The cell pellets were resuspended in 500 μl of extraction solution (acetonitrile/methanol/water, 40:40:20, v/v/v) and cooled on ice for 15 min. The samples were boiled for 10 min at 95 °C and then cooled again on ice for 15 min. After centrifugation at 20,000×g and 4 °C for 10 min, supernatants were transferred to new tubes on ice. The remaining pellets were used for two more extraction steps with 500 μl of the extraction solution without heating. Pooled supernatants for each sample were lyophilized, and pellets were resolubilized in 200 μl of distilled water. C-di-GMP concentrations were then measured by LC-MS/MS[63] (AB SCIEX QTRAP 6500+ LC-MS/MS System). Intracellular levels of c-di-GMP were normalized to the number of bacterial cells for each sample.
# WP_000766134-LBD = biological target: T3, WP_000766134-LBD (Escherichia coli O157:H7, UniProt A0A0H3JEN8); experiment: ITC: DPD/AI-2 binding to GAPES1 domain of the YeaJ homolog from EHEC O157:H7
# T3 sequence (A0A0H3JEN8 31-304): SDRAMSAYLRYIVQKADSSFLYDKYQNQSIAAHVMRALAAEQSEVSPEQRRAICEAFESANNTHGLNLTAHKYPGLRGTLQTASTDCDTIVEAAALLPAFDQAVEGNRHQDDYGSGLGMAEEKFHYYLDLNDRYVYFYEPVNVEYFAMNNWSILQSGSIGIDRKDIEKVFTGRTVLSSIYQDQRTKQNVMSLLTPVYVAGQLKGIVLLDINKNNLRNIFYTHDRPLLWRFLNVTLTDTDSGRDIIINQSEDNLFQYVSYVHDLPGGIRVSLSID
# YeaJ = experiment: In vitro DGC activity assay of YeaJ (membrane fractions, HPLC of c-di-GMP); type: biochemical, S. Typhimurium; conditions: 100 μM GTP; for Concentration of c-di-GMP: 30 °C
# KMK13526-LBD = KMK13526-LBD (Pluralibacter gergoviae, UniProt A0A0J5L7D7); experiment: ITC: DPD/AI-2 binding to KMK13526-LBD; conditions: ITC binding stoichiometry n, individual replicates, Supplementary Figure 7b
# Chain of KMK13526-LBD (A0A0J5L7D7 31-310): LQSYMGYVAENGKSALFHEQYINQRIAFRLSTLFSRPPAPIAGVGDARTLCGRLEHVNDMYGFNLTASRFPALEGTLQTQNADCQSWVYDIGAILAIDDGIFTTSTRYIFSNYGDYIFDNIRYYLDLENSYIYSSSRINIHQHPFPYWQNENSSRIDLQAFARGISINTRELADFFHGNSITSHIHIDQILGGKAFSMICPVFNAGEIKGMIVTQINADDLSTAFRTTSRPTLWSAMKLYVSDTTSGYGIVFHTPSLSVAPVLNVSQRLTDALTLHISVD
# WP_034494714-LBD = WP_034494714-LBD (Buttiauxella agrestis, UniProt A0A085GF42); experiment: ITC: DPD/AI-2 binding to WP_034494714-LBD; conditions: individual replicates, Supplementary Figure 7c
# Chain of WP_034494714-LBD (A0A085GF42 27-302): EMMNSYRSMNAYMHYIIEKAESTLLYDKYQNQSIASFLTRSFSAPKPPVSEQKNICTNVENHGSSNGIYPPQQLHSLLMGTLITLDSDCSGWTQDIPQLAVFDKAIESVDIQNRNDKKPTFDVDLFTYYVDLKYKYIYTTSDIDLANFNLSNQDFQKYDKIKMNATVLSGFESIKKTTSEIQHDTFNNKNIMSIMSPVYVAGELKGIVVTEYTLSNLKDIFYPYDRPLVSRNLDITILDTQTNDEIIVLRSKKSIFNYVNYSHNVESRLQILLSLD
# YeaJ-LBD = biological target: T4, YeaJ-LBD (Salmonella enterica subsp. enterica serovar Typhimurium, UniProt Q8ZPW4); experiment: ITC: DPD/AI-2 binding to YeaJ-LBD; design: species or system S. Typhimurium
# T4 sequence (Q8ZPW4 30-304): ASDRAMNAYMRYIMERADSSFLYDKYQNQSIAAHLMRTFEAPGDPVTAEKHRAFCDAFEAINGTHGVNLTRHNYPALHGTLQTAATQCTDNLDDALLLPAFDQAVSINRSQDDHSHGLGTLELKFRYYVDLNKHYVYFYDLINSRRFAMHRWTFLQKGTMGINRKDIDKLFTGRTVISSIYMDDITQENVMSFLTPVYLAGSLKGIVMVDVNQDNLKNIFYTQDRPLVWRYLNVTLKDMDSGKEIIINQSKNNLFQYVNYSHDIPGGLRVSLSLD
# Description: as §1
# [2] = individual experiments, source data Fig. 1d
compound,measurement,setting,value
SicA,Kd,SipB,500 nM and 560 nM and 540 nM
same,"n, SicA binding to SipC",SipC; ITC binding stoichiometry n,1.04 and 1.18 and 1.02
same,Kd,"SipC; ITC, read-out: Kd, SicA binding to SipC",670 nM and 550 nM
same,"n, SicA binding to InvF",InvF; ITC binding stoichiometry n,1.00 and 1.13 and 1.16
same,Kd,"InvF; read-out: Kd, SicA binding to InvF, ITC",470 nM and 420 nM and 490 nM
"CC(=O)C(=O)[C@@H](O)CO [DPD/AI-2, autoinducer-2]","n, DPD/AI-2 binding to KMK13526-LBDH216Y/Q245D",[1],1.11 and 1.03 and 1.17
same,Kd,YeaJ-LBDD239A,17000 nM
same,n (complex stoichiometry),YeaJ-LBDD239A,0.97 and 0.93
same,Kd,YeaJ-LBDY210A,23000 nM and 29000 nM and 26000 nM
same,n (complex stoichiometry),YeaJ-LBDY210A,1.02 and 0.93 and 1.04
same,Change of intracellular c-di-GMP concentration (in words),S. Typhimurium; ΔluxS mutant,significant increase
same,c-di-GMP (fmol/107 cells),"S. Typhimurium; ΔluxS, 10 μM DPD/AI-2 for 30 min, LB, OD600 1.3, biological replicates",31.06 fmol/107 cells and 29.99 fmol/107 cells and 27.56 fmol/107 cells
same,Change of intracellular c-di-GMP concentration (in words),S. Typhimurium; ΔyeaJΔluxS mutant,did not increase
same,"n, DPD/AI-2 binding to WP_000766134-LBD","WP_000766134-LBD; ITC binding stoichiometry n, individual replicates, Supplementary Figure 7a",1.18 and 1.17 and 1.13
same,AI-2 binding affinity (in words),"WP_000766134-LBD; ITC, GAPES1 domain of the YeaJ homolog from EHEC O157:H7",high affinity
same,Kd,"WP_000766134-LBD; read-out: Kd, DPD/AI-2 binding to WP_000766134-LBD, ITC, individual replicates, Supplementary Figure 7a",120 nM and 170 nM
same,Concentration of c-di-GMP,"YeaJ; 100 μM DPD/AI-2, 30 min",19.68 µM and 20.02 µM and 21.70 µM
same,Concentration of c-di-GMP,"YeaJ; 100 μM DPD/AI-2, 60 min",32.50 µM and 32.49 µM and 31.69 µM
same,Concentration of c-di-GMP,"YeaJ; 200 μM DPD/AI-2, 30 min",39.23 µM and 36.03 µM and 36.70 µM
same,Concentration of c-di-GMP,"YeaJ; 200 μM DPD/AI-2, 60 min",44.10 µM and 43.39 µM and 41.58 µM
same,Effect on DGC activity of YeaJ in synthesizing c-di-GMP (in words),"YeaJ; in vitro, membrane fractions",stimulates the activity of YeaJ
same,"n, DPD/AI-2 binding to KMK13526-LBD",KMK13526-LBD,0.93 and 1.03 and 0.86
same,"n, DPD/AI-2 binding to WP_034494714-LBD",WP_034494714-LBD; ITC binding stoichiometry n,0.94 and 0.97 and 0.98
same,Kd,"WP_034494714-LBD; read-out: Kd, DPD/AI-2 binding to WP_034494714-LBD, ITC",32000 nM and 39000 nM and 38000 nM
same,Kd,"YeaJ-LBD; 20 °C, mean ± s.d. of three independent experiments",150 ± 20 nM
same,Kd,YeaJ-LBD; [2],160 nM and 130 nM
same,n (complex stoichiometry),YeaJ-LBD; [2],1.20 and 1.19 and 1.04

# — publication PMC9637222, “Autoinducer-2 and bile salts induce c-di-GMP synthesis to repress the T3SS via a T3SS chaperone” (Nature Communications, 2022)
